The nature of this assay: Inhibition of SARS-CoV-1 RdRp-mediated viral replication.

pIC50: −log10 of the molar value.

For orientation: pIC50 means −log10 of the IC50, conventionally taken in molar units. Low values mean a high IC50, high ones a low IC50. On to `CN(C)CCCSc1ccccc1NC(=O)/C=C/c1ccccc1` [CINANSERIN], for which the pIC50 is 4.47.

For the origin of these results see BindingDB's records for doi:10.1021/acs.jmedchem.2c01229 (University of Siena, 2023).
